Test results reported in PMC4716540 (British Journal of Cancer, 2015).

Experiment: Plasma pharmacokinetics of KW-2478
Format: in vivo, human
[1] = 14 mg m^–2 iv, day 1, n=3, mean±s.d.
[2] = 14 mg m^–2 iv, day 5, n=3, mean±s.d.
[3] = 28 mg m^–2 iv, day 1, n=3, mean±s.d.
[4] = 28 mg m^–2 iv, day 5, n=3, mean±s.d.
[5] = 47 mg m^–2 iv, day 1, n=3, mean±s.d.
[6] = 47 mg m^–2 iv, day 5, n=2, mean±s.d.
[7] = 71 mg m^–2 iv, day 1, n=3, mean±s.d.
[8] = 71 mg m^–2 iv, day 5, n=2, mean±s.d.
[9] = 99 mg m^–2 iv, day 1, n=3, mean±s.d.
[10] = 99 mg m^–2 iv, day 5, n=3, mean±s.d.
[11] = 132 mg m^–2 iv, day 1, n=6, mean±s.d.
[12] = 132 mg m^–2 iv, day 5, n=6, mean±s.d.
[13] = 176 mg m^–2 iv, day 1, n=6, mean±s.d.
[14] = 176 mg m^–2 iv, day 5, n=5, mean±s.d.

In the case of `CCc1c(O)cc(O)c(C(=O)c2ccc(OCCN3CCOCC3)c(OC)c2)c1CC(=O)N(CCOC)CCOC` [KW-2478], the “AUC0–t” value [1] is reported as 819±403 ng h^–1 ml^–1, the “AUC0–∞” value [1] is reported as 992±497 ng h^–1 ml^–1 and the “CL (total plasma clearance)” value [1] is reported as 28.9±11.1 l h^–1. For the same compound, the Cmax [1] was 645±306 ng ml^–1, the kel (elimination rate constant) [1] was 0.11 ± 0.01 h⁻¹ and the “t½ (terminal half-life)” value [1] was 6.05 ± 0.37 h. For the same compound, the “AUC0–t” value [2] was 844±445 ng h^–1 ml^–1, the Cmax [2] was 656±342 ng ml^–1 and the “AUC0–t” value [3] was 1935±848 ng h^–1 ml^–1. The “AUC0–∞” value [3] was 2353±1117 ng h^–1 ml^–1, the “CL (total plasma clearance)” value [3] was 23.1±15.9 l h^–1 and the Cmax [3] was 1620±556 ng ml^–1. The kel (elimination rate constant) [3] was 0.11 ± 0.02 h⁻¹, the “t½ (terminal half-life)” value [3] was 6.48 ± 0.96 h and the “AUC0–t” value [4] was 1639±768 ng h^–1 ml^–1. The Cmax [4] was 1320±531 ng ml^–1, the “AUC0–t” value [5] was 2325±652 ng h^–1 ml^–1 and the “AUC0–∞” value [5] was 2758±891 ng h^–1 ml^–1. The “CL (total plasma clearance)” value [5] was 34.9±8.35 l h^–1, the Cmax [5] was 1990±236 ng ml^–1 and the kel (elimination rate constant) [5] was 0.11 ± 0.01 h⁻¹. For the same compound, the “t½ (terminal half-life)” value [5] was 6.60 ± 0.69 h, the “AUC0–t” value [6] was 2334±532 ng h^–1 ml^–1 and the Cmax [6] was 1705±785 ng ml^–1. The “AUC0–t” value [7] was 2798±432 ng h^–1 ml^–1, the “AUC0–∞” value [7] was 3197±400 ng h^–1 ml^–1 and the “CL (total plasma clearance)” value [7] was 43.0±6.80 l h^–1. For the same compound, the Cmax [7] was 2620±585 ng ml^–1, the kel (elimination rate constant) [7] was 0.11 ± 0.02 h⁻¹ and the “t½ (terminal half-life)” value [7] was 6.29 ± 0.93 h. For the same compound, the “AUC0–t” value [8] was 3681±497 ng h^–1 ml^–1, the Cmax [8] was 2675±49.5 ng ml^–1 and the “AUC0–t” value [9] was 4220±1251 ng h^–1 ml^–1. For the same compound, the “AUC0–∞” value [9] was 4826±1504 ng h^–1 ml^–1, the “CL (total plasma clearance)” value [9] was 42.7±12.5 l h^–1 and the Cmax [9] was 3400±876 ng ml^–1. The kel (elimination rate constant) [9] was 0.12 ± 0.003 h⁻¹, the “t½ (terminal half-life)” value [9] was 5.83 ± 0.14 h and the “AUC0–t” value [10] was 3673±932 ng h^–1 ml^–1. For the same compound, the Cmax [10] was 2977±610 ng ml^–1, the “AUC0–t” value [11] was 6910±1864 ng h^–1 ml^–1 and the “CL (total plasma clearance)” value [11] was 35.0±9.99 l h^–1. The Cmax [11] was 5410±1622 ng ml^–1, the kel (elimination rate constant) [11] was 0.12 ± 0.01 h⁻¹ and the “t½ (terminal half-life)” value [11] was 5.71 ± 0.61 h. The “AUC0–t” value [12] was 7262±1331 ng h^–1 ml^–1, the Cmax [12] was 5972±940 ng ml^–1 and the “CL (total plasma clearance)” value [13] was 32.8±10.7 l h^–1. For the same compound, the Cmax [13] was 6838±1961 ng ml^–1, the kel (elimination rate constant) [13] was 0.13 ± 0.01 h⁻¹ and the “t½ (terminal half-life)” value [13] was 5.43 ± 0.39 h. The “AUC0–t” value [14] was 8355±2496 ng h^–1 ml^–1, the Cmax [14] was 6062±1411 ng ml^–1 and the “Mean t½, range across dose levels” value (14–176 mg m^–2) was 5.4 to 6.6 h. For the same compound, the “Total CL, range of means across dose levels” value (14–176 mg m^–2) was 23.1–43.0 l h^–1, the “Manner of plasma concentration decline” value (after end of infusion, rapid distribution phase and slower elimination phase) was “biphasic” and the “Mean Cmax and AUC values in relation to dose” value (days 1 and 5) was “increased linearly in relation to dose”. The “Accumulation from days 1 to 5 (Cmax, AUC)” value (once daily days 1–5) was “no relevant accumulation” and the Terminal half-life (plasma, iv infusion over 1 h) was about 6 h.
